Consider 32 compounds from patent US20060116390A1, “Hepatitis c virus inhibitors” (priority 2003, published 2006).

Like-named read-outs stand apart in the source and are kept apart here. A value given as a limit tells only on which side of the number the result lay.

The assay has as its system HCV proteins in Rep5.1 cells (replicon cell line). Nature of the assay: Inhibitory activity of HCV: cell-based ELISA in replicon cell line Rep5.1 (decrease of HCV proteins). On the set-up: species or system hepatitis C virus. The procedure, abridged: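 Rep5.1 replicon cells (5000/well, DMEM-10 with 500 μg/ml G418) were given serially diluted drug 4 h after seeding. After 72 h, cells were fixed in methanol/acetone and HCV proteins detected by cell-based ELISA using replicon-specific patient plasma antibodies. IC50 is the concentration giving 50% protein decrease versus the no-drug control.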
(ELISA stands for enzyme-linked immunosorbent assay.)

The mark [1] stands for this setting: Hepatitis C virus, 72 h, Rep5.1 cells, 72 hours with drug, concentration at which 50% of HCV proteins was decreased, Table 2, read-out: IC50.
[2] abbreviates: Hepatitis C virus, 72 h, Rep5.1 cells, 72 hours with drug, decrease of HCV proteins measured by HCV antibody, Table 1, read-out: Level (IC50 values classified).
[3] abbreviates: Rep5.1 cells, 72 hours with drug, concentration at which 50% of HCV proteins was decreased, Table 2, read-out: IC50.

One may read the IC50 as the concentration that inhibits the measured activity by half. For `CC1=C(C(=O)OCc2ccsc2)CNC(=S)N1` [Compound 139, 6-methyl-2-thioxo-1,2,3,4-tetrahydro-pyrimidine-5-carboxylic acid thiophen-3-ylmethyl ester], the IC50 was 7 µM under setting [1] and 1 to 10 µM under setting [2]. The corresponding values for `CC1=C(C(=O)OCCCCSc2nc3ccccc3s2)C(CO)NC(=S)N1` (centres unmarked) [70″, 4-hydroxymethyl-6-methyl-2-thioxo-1,2,3,4-tetrahydro-pyrimidine-5-carboxylic acid 4-(benzothiazol-2-ylsulfanyl)-butyl ester] are 0.4 µM and under 1 µM. With `CC1=C(C(=O)OCc2cccc(C(F)(F)F)c2)C(CO)NC(=S)N1` (centres unmarked) [51″, 4-hydroxymethyl-6-methyl-2-thioxo-1,2,3,4-tetrahydro-pyrimidine-5-carboxylic acid 3-trifluoromethyl-benzyl ester], the IC50 by setting is: under setting [1], 2.3 µM; under setting [2], 1 to 10 µM.

In the case of `CC1=C(C(=O)OCC2=Cc3ccccc3S2(=O)=O)CNC(=S)N1` [Compound 127, 6-methyl-2-thioxo-1,2,3,4-tetrahydro-pyrimidine-5-carboxylic acid 1,1-dioxo-1H-11^6-benzo[b]thiophen-2-ylmethyl ester], the IC50 under setting [3] is 3.5 µM. As for `CC1=C(C(=O)OCc2ccc(S(C)(=O)=O)cc2)CNC(=S)N1` [Compound 74, 6-methyl-2-thioxo-1,2,3,4-tetrahydro-pyrimidine-5-carboxylic acid 4-methanesulfonyl-benzyl ester], the IC50 reads like this: under setting [1], over 100 µM; under setting [2], over 20 µM. On to `CC1=C(C(=O)OCc2c(C)cccc2C)CNC(=S)N1` [Compound 184, 6-methyl-2-thioxo-1,2,3,4-tetrahydro-pyrimidine-5-carboxylic acid 2,6-dimethyl-benzyl ester], for which the IC50 under setting [1] was found to be 19 µM and the IC50 under setting [2] lay in the range of 10 to 20 µM. In the case of `CC1=C(C(=O)OCC2(c3ccc(Cl)cc3Cl)CC2)C(CO)NC(=S)N1` (centres unmarked) [61″, 4-hydroxymethyl-6-methyl-2-thioxo-1,2,3,4-tetrahydro-pyrimidine-5-carboxylic acid 1-(2,4-dichloro-phenyl)-cyclopropylmethyl ester], the IC50 under setting [1] turned out to be 16 µM and the IC50 under setting [2] lay within 10 to 20 µM. The corresponding values for `CC1=C(C(=O)OCc2ccccc2[N+](=O)[O-])CNC(=S)N1` [Compound 183, 6-methyl-2-thioxo-1,2,3,4-tetrahydro-pyrimidine-5-carboxylic acid 2-nitro-benzyl ester] are 2.5 µM and 1 to 10 µM. Taken in the same sequence, the figures for `CC1=C(C(=O)OCCOCc2ccccc2)CNC(=S)N1` [Compound 15, 6-methyl-2-thioxo-1,2,3,4-tetrahydro-pyrimidine-5-carboxylic acid 2-benzyloxy-ethyl ester] were 3 µM and 1 to 10 µM.

For `COCC1=C(C(=O)OCc2ccccc2)CNC(=S)N1` [Compound 64, 6-methoxymethyl-2-thioxo-1,2,3,4-tetrahydro-pyrimidine-5-carboxylic acid benzyl ester], the IC50 runs as follows: under setting [1], 15 µM; under setting [2], 10 to 20 µM.

In the case of `CC1=C(C(=O)OCC2=CCC3CC2C3(C)C)CNC(=S)N1` (centres unmarked) [Compound 97, 6-methyl-2-thioxo-1,2,3,4-tetrahydro-pyrimidine-5-carboxylic acid 6,6-dimethyl-bicyclo[3.1.1]hept-2-en-2-ylmethyl ester], the IC50 reads like this: (Hepatitis C virus, 72 h) under 0.4 µM; (Hepatitis C virus, 72 h, read-out: Level (IC50 values classified)) under 1 µM. Regarding `O=C(OCc1ccccc1)C1=C(C(=O)OCc2ccccc2)NC(=S)NC1` [Compound 87, 2-thioxo-1,2,3,6-tetrahydro-pyrimidine-4,5-dicarboxylic acid dibenzyl ester], the IC50 is, setting by setting: under setting [1], 56 µM; under setting [2], over 20 µM. The corresponding values for `COC(=O)c1ccc(COC(=O)C2=C(C)NC(=S)NC2)cc1` [Compound 11, 6-methyl-2-thioxo-1,2,3,4-tetrahydro-pyrimidine-5-carboxylic acid 4-methoxycarbonyl-benzyl ester] are over 100 µM and over 20 µM. In the case of `CCCCCCC#CCCOC(=O)C1=C(C)NC(=S)NC1` [Compound 200, 6-methyl-2-thioxo-1,2,3,4-tetrahydro-pyrimidine-5-carboxylic acid dec-3-inyl ester], the IC50 under setting [3] was under 0.4 µM. For the compound `COc1ccc(COC(=O)C2=C(C)NC(=S)NC2)cc1OC` [Compound 40, 6-methyl-2-thioxo-1,2,3,4-tetrahydro-pyrimidine-5-carboxylic acid 3,4-dimethoxy-benzyl ester], the IC50 was 92 µM under setting [1] and over 20 µM under setting [2]. The corresponding values for `CCc1ccc(CCOC(=O)C2=C(C)NC(=S)NC2)o1` [22′, 6-methyl-2-thioxo-1,2,3,4-tetrahydro-pyrimidine-5-carboxylic acid 2-(5-ethyl-furan-2-yl)-ethyl ester] are under 0.4 µM and under 1 µM. As to `CC1=C(C(=O)OCC=Cc2ccccc2)CNC(=S)N1` [Compound 54, 6-methyl-2-thioxo-1,2,3,4-tetrahydro-pyrimidine-5-carboxylic acid 3-phenyl-allyl ester], the IC50 by setting is: under setting [1], under 0.5 µM; under setting [2], under 1 µM. In the case of `CC1=C(C(=O)OCCc2c(F)c(F)c(F)c(F)c2F)C(CF)NC(=S)N1` (centres unmarked) [60′, 4-fluoromethyl-6-methyl-2-thioxo-1,2,3,4-tetrahydro-pyrimidine-5-carboxylic acid 2-pentafluorophenyl-ethyl ester], the IC50 under setting [3] worked out at 4 µM. In the case of `CC1=C(C(=O)OCC#Cc2ccccc2)C(CF)NC(=S)N1` (centres unmarked) [45′, 4-fluoromethyl-6-methyl-2-thioxo-1,2,3,4-tetrahydro-pyrimidine-5-carboxylic acid 3-phenyl-prop-2-inyl ester], the IC50 under setting [3] was determined as 0.8 µM. As to `CC1=C(C(=O)OCc2cccc(I)c2)CNC(=S)N1` [Compound 75, 6-methyl-2-thioxo-1,2,3,4-tetrahydro-pyrimidine-5-carboxylic acid 3-iodo-benzyl ester], the IC50 was under 0.5 µM under setting [1] and under 1 µM under setting [2]. In the case of `CC1=C(C(=O)OCC#Cc2ccccc2)CNC(=S)N1` [Compound 192, 6-methyl-2-thioxo-1,2,3,4-tetrahydro-pyrimidine-5-carboxylic acid 3-phenyl-prop-2-inyl ester], the IC50 under setting [3] is under 0.4 µM.

On to `CC1=C(C(=O)OCc2sccc2-n2cccc2)CNC(=S)N1` [Compound 220, 6-methyl-2-thioxo-1,2,3,4-tetrahydro-pyrimidine-5-carboxylic acid 3-pyrrol-1-yl-thiophen-2-ylmethyl ester], for which the IC50 under setting [1] was 0.8 µM and the IC50 under setting [2] was under 1 µM. As to `CC1=C(C(=O)OCc2cccc(SC(F)(F)F)c2)CNC(=S)N1` [Compound 164, 6-methyl-2-thioxo-1,2,3,4-tetrahydro-pyrimidine-5-carboxylic acid 3-trifluoromethylsulfanyl-benzyl ester], the IC50 by setting is: under setting [1], under 0.4 µM; under setting [2], under 1 µM.

As for `CC1=C(C(=O)OCc2cc(F)cc(F)c2)C(CF)NC(=S)N1` (centres unmarked) [69′, 4-fluoromethyl-6-methyl-2-thioxo-1,2,3,4-tetrahydro-pyrimidine-5-carboxylic acid 3,5-difluoro-benzyl ester], the IC50 is 3 µM under setting [1] and 1 to 10 µM under setting [2]. The corresponding values for `CC1=C(C(=O)OCCCc2ccsc2)C(C(C)O)NC(=S)N1` (centres unmarked) [15″, 4-(1-hydroxy-ethyl)-6-methyl-2-thioxo-1,2,3,4-tetrahydro-pyrimidine-5-carboxylic acid 3-thiophen-3-yl-propyl ester] are 55 µM and over 20 µM. The corresponding values for `CC1=C(C(=O)OCc2ccc3c(c2)OCO3)CNC(=S)N1` [Compound 9, 6-methyl-2-thioxo-1,2,3,4-tetrahydro-pyrimidine-5-carboxylic acid benzo[1,3]dioxol-5-ylmethyl ester] are 4 µM and 1 to 10 µM. For the compound `CC1=C(C(=O)OCC2CCC2)CNC(=S)N1` [Compound 80, 6-methyl-2-thioxo-1,2,3,4-tetrahydro-pyrimidine-5-carboxylic acid cyclobutylmethyl ester], the IC50 is 2.3 µM under setting [1] and 1 to 10 µM under setting [2]. Taken in the same sequence, the figures for `COc1cccc(COC(=O)C2=C(C)NC(=S)NC2)c1` [Compound 120, 6-methyl-2-thioxo-1,2,3,4-tetrahydro-pyrimidine-5-carboxylic acid 3-methoxy-benzyl ester] were 1 µM and 1 to 10 µM. The corresponding values for `CC1=C(C(=O)OC2CCc3c(Cl)sc(Cl)c32)CNC(=S)N1` (centres unmarked) [12′, 6-methyl-2-thioxo-1,2,3,4-tetrahydro-pyrimidine-5-carboxylic acid 1,3-dichloro-5,6-dihydro-4H-cyclopenta[c]thiophen-4-yl ester] are under 0.4 µM and under 1 µM. Taken in the same sequence, the figures for `CC1=C(C(=O)OCc2cccc(C#N)c2)CNC(=S)N1` [Compound 48, 6-methyl-2-thioxo-1,2,3,4-tetrahydro-pyrimidine-5-carboxylic acid 3-cyano-benzyl ester] were 30 µM and 10 to 20 µM. For `CC1=C(C(=O)OCc2cccc([N+](=O)[O-])c2)CNC(=S)N1` [Compound 77, 6-methyl-2-thioxo-1,2,3,4-tetrahydro-pyrimidine-5-carboxylic acid 3-nitro-benzyl ester], the IC50 under setting [1] stood at 2.3 µM and the IC50 under setting [2] was in the range of 1 to 10 µM. `CC1=C(C(=O)OCc2cc(Cl)ccc2[N+](=O)[O-])C(CO)NC(=S)N1` (centres unmarked) [47″, 4-hydroxymethyl-6-methyl-2-thioxo-1,2,3,4-tetrahydro-pyrimidine-5-carboxylic acid 5-chloro-2-nitro-benzyl ester]: the IC50 by setting is: under setting [1], over 100 µM; under setting [2], over 20 µM.
